# Molecular target: T1, catechol-O-methyltransferase (COMT) (Homo sapiens, UniProt P21964)
# T1 construct: M51A variant) was expressed in HEK 293F cells
# T1 sequence (P21964 52-271 limits assumed): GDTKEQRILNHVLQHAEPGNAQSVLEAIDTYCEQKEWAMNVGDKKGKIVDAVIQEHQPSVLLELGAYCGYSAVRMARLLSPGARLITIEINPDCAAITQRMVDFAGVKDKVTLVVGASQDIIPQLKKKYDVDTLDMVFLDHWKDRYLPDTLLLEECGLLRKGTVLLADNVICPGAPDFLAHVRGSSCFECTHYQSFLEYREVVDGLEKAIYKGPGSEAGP
# Experiment: COMT inhibition assay (HTRF, production of SAH from SAM)
# Assay type: biochemical
# Settings: table does not say MB-COMT or S-COMT
# In short: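 Membranes from HEK293F cells expressing MB-COMT (M51A variant) incubated with 20 μM SAM and 1.5 μM dopamine plus compound (10 concentrations) for 40 min at 37 °C; S-COMT (Val158) at 0.15 ng/well used 100 μM dopamine, 15 min. SAH measured by HTRF against a standard curve; pIC50 from 4-parameter logistic fit.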
row,Structure (SMILES),Activity range (pIC50)
1,"CCc1ccc(CN2CCn3cc(O)c(=O)cc3C2C2CCOCC2)cc1 (centres unmarked) [Example 125, 2-(4-ethylbenzyl)-7-hydroxy-1-(tetrahydro-2H-pyran-4-yl)-1,2,3,4-tetrahydro-8H-pyrido[1,2-a]pyrazin-8-one]",+++ (three plus signs (+++) is associated with a pIC50 of above about 7)
2,"CCc1ccc(CN2CCn3cc(O)c(=O)cc3C2c2cccc(-c3cccnc3)c2)cc1 (centres unmarked) [Example 126, 2-(4-ethylbenzyl)-7-hydroxy-1-[3-(pyridin-3-yl)phenyl]-1,2,3,4-tetrahydro-8H-pyrido[1,2-a]pyrazin-8-one]",+++ (three plus signs (+++) is associated with a pIC50 of above about 7)
3,"O=c1cc2n(cc1O)CC(c1ccccc1)N(Cc1ccccc1)C2 (centres unmarked) [Example 127, 2-benzyl-7-hydroxy-3-phenyl-1,2,3,4-tetrahydro-8H-pyrido[1,2-a]pyrazin-8-one]",+++ (three plus signs (+++) is associated with a pIC50 of above about 7)
4,"O=c1cc2n(cc1O)CC(Cc1ccccc1)N(Cc1ccccc1)C2 (centres unmarked) [Example 128, 2,3-dibenzyl-7-hydroxy-1,2,3,4-tetrahydro-8H-pyrido[1,2-a]pyrazin-8-one]",++ (two plus signs (++) is associated with a pIC50 of from about 6 to 7)
5,"O=c1cc2n(cc1O)CC(Cc1ccccc1)N(Cc1c(Cl)cccc1Cl)C2 (centres unmarked) [Example 129, 3-benzyl-2-(2,6-dichlorobenzyl)-7-hydroxy-1,2,3,4-tetrahydro-8H-pyrido[1,2-a]pyrazin-8-one]",++ (two plus signs (++) is associated with a pIC50 of from about 6 to 7)
6,"CC1Cn2cc(O)c(=O)cc2CN1Cc1ccc(OC(F)(F)F)cc1 (centres unmarked) [Example 130, 7-hydroxy-3-methyl-2-[4-(trifluoromethoxy)benzyl]-1,2,3,4-tetrahydro-8H-pyrido[1,2-a]pyrazin-8-one]",++ (two plus signs (++) is associated with a pIC50 of from about 6 to 7)
7,"CC1Cn2cc(O)c(=O)cc2CN1Cc1ccccc1 (centres unmarked) [Example 131, 2-benzyl-7-hydroxy-3-methyl-1,2,3,4-tetrahydro-8H-pyrido[1,2-a]pyrazin-8-one]",++ (two plus signs (++) is associated with a pIC50 of from about 6 to 7)
8,"O=c1cc2n(cc1O)CC(CCc1ccccc1)N(Cc1ccccc1)C2 (centres unmarked) [Example 132, 2-benzyl-7-hydroxy-3-(2-phenylethyl)-1,2,3,4-tetrahydro-8H-pyrido[1,2-a]pyrazin-8-one]",+++ (three plus signs (+++) is associated with a pIC50 of above about 7)
9,"O=c1c(O)cn2c(c1Cl)CN(Cc1c(F)cccc1Cl)CC2 [Example 133, 9-chloro-2-(2-chloro-6-fluorobenzyl)-7-hydroxy-1,2,3,4-tetrahydro-8H-pyrido[1,2-a]pyrazin-8-one]",+++ (three plus signs (+++) is associated with a pIC50 of above about 7)
10,"O=c1cc2n(c(F)c1O)CCN(Cc1ccccc1Cl)C2 [Example 134, 6-fluoro-7-hydroxy-2-[[2-chlorophenyl]methyl]-3,4-dihydro-1H-pyrido[1,2-a]pyrazin-8-one]",++ (two plus signs (++) is associated with a pIC50 of from about 6 to 7)
11,"O=c1cc2n(c(F)c1O)CCN(Cc1ccc(OC(F)(F)F)cc1)C2 [Example 135, 2-[(4-(trifluoromethoxy)phenyl)methyl]-6-fluoro-7-hydroxy-3,4-dihydro-1H-pyrido[1,2-a]pyrazin-8-one]",++ (two plus signs (++) is associated with a pIC50 of from about 6 to 7)
12,"CCc1ccc(CN2CCn3cc(O)c(=O)c(Cl)c3C2)cc1 [Example 136, 9-chloro-2-(4-ethylbenzyl)-7-hydroxy-1,2,3,4-tetrahydro-8H-pyrido[1,2-a]pyrazin-8-one]",+++ (three plus signs (+++) is associated with a pIC50 of above about 7)
13,"O=c1c(O)cn2c(c1Cl)CN(Cc1ccccc1Cl)CC2 [Example 137, 9-chloro-2-[(2-chlorophenyl)methyl]-7-hydroxy-3,4-dihydro-1H-pyrido[1,2-a]pyrazin-8-one]",+++ (three plus signs (+++) is associated with a pIC50 of above about 7)
14,"CCc1ccc(CN2CCn3cc(O)c(=O)c(Br)c3C2)cc1 [Example 138, 9-bromo-2-(4-ethylbenzyl)-7-hydroxy-1,2,3,4-tetrahydro-8H-pyrido[1,2-a]pyrazin-8-one]",+++ (three plus signs (+++) is associated with a pIC50 of above about 7)
15,"O=c1c(O)cn2c(c1Br)CN(Cc1ccccc1Cl)CC2 [Example 139, 9-bromo-2-[(2-chlorophenyl)methyl]-7-hydroxy-3,4-dihydro-1H-pyrido[1,2-a]pyrazin-8-one]",+++ (three plus signs (+++) is associated with a pIC50 of above about 7)
16,"O=c1c(O)cn2c(c1I)CN(Cc1ccccc1Cl)CC2 [Example 140, 2-[(2-chlorophenyl)methyl]-7-hydroxy-9-iodo-3,4-dihydro-1H-pyrido[1,2-a]pyrazin-8-one]",+ (a single plus (+) is associated with a pIC50 of from about 4.5 to 6)
17,"CCc1ccc(CN2CCn3cc(O)c(=O)c(C4CC4)c3C2)cc1 [Example 141, 9-cyclopropyl-2-(4-ethylbenzyl)-7-hydroxy-1,2,3,4-tetrahydro-8H-pyrido[1,2-a]pyrazin-8-one]",++ (two plus signs (++) is associated with a pIC50 of from about 6 to 7)
18,"O=c1c(O)cn2c(c1C1CC1)CN(Cc1ccccc1Cl)CC2 [Example 142, 2-[(2-chlorophenyl)methyl]-9-cyclopropyl-7-hydroxy-3,4-dihydro-1H-pyrido[1,2-a]pyrazin-8-one]",+++ (three plus signs (+++) is associated with a pIC50 of above about 7)

# Test system: not given
# Experiment: not given
# Settings: Russ, et al. 1999; cited from earlier work
row,Structure (SMILES),brain penetration
1,CCN(CC)C(=O)/C(C#N)=C/c1cc(O)c(O)c([N+](=O)[O-])c1 [entacapone],negligible
2,Cc1ccc(C(=O)c2cc(O)c(O)c([N+](=O)[O-])c2)cc1 [tolcapone],low but measurable

# Test system: not given
# Experiment: not given
# Settings: Nutt and Fellman 1984; cited from earlier work
row,Structure (SMILES),percentage of exogenously administered L-DOPA that reaches the brain
1,"N[C@@H](Cc1ccc(O)c(O)c1)C(=O)O [L-DOPA, L-dihydroxyphenylalanine]",~1%

# Molecular target: T2, aromatic amino acid decarboxylase (AAAD) (Homo sapiens, UniProt P20711)
# T2 sequence (P20711 1-480): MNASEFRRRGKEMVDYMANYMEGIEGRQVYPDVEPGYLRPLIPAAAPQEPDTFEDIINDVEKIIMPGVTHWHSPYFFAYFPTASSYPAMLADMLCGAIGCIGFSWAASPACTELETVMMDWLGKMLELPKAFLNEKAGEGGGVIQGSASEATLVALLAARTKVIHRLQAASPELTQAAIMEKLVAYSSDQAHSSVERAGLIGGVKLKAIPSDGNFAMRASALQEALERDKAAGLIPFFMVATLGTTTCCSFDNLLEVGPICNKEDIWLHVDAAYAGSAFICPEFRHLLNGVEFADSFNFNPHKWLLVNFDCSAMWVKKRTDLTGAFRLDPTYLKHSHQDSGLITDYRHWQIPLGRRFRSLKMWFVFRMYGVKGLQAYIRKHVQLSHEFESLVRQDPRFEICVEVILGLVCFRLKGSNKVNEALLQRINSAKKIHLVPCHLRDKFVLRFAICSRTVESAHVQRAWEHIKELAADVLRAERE
# Experiment: not given
# Settings: given with L-DOPA; Nutt, Woodward et al. 1985; cited from earlier work
row,Structure (SMILES),reduction of the efficacious L-DOPA dose
1,C[C@@](Cc1ccc(O)c(O)c1)(NN)C(=O)O [Carbidopa],60-80%

# Test system: not given
# Experiment: not given
# Settings: clinical use; Olanow and Watkins 2007; cited from earlier work
row,Structure (SMILES),liver injury
1,Cc1ccc(C(=O)c2cc(O)c(O)c([N+](=O)[O-])c2)cc1 [tolcapone],"serious liver injury, including three deaths"

# Reference: patent US10934283B2, “COMT inhibiting methods and compositions” (LIEBER INSTITUTE FOR BRAIN DEVELOPMENT, priority 2015, dated 2021)
